This is an account of results in patent publication US7235576B1, “Omega-carboxyaryl substituted diphenyl ureas as raf kinase inhibitors” (Bayer Pharmaceuticals Corporation, priority 2001, dated 2007).

Compound `COC(=O)c1ccc(Oc2ccc(NC(=O)Nc3ccc(Cl)c(C(F)(F)F)c3)cc2)cn1` [Entry 55, N-(4-chloro-3-(trifluoromethyl)phenyl)-N′-(4-(2-(methoxycarbonyl)-5-pyridyloxy)phenyl)urea] registered a melting point of 228 to 230 °C. Next, `CNC(=O)c1cc(Oc2ccc(NC(=O)Nc3ccc(Oc4ccnc(C(=O)NC)c4)cc3)cc2)ccn1` [Entry 103, bis(4-(2-(N-methylcarbamoyl)-4-pyridyloxy)phenyl)urea]: 125 to 130 °C.

The melting point is the temperature, or range, at which the solid turns liquid.
